From patent US7138361B2, “Herbicidal heterocycles” (E. I. du Pont de Nemours and Company, priority 2000, dated 2006)

Experiments:
Format in all cases: in vivo
[1] = test system: velvetleaf (Abutilon theophrasti); experiment: Test B postemergence; conditions: Rate 125 g/ha, scale 0 to 100, 0 no effect, 100 complete control
Summary of the method: (§1)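 Pre: seeded pots sprayed, chemical in non-phytotoxic solvent/surfactant mix. Post: plants 2–18 cm, 1–4 leaf, same formulation. Greenhouse 13–15 d; visual % control vs untreated, 0–100 scale.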

corn (Zea mays) [2] = experiment: Test B postemergence
Summary of the method: as §1

wild oat (Avena fatua) = experiment: Test B postemergence; conditions: Rate 125 g/ha, scale 0 to 100, 0 no effect, 100 complete control
Summary of the method: as §1

[3] = test system: lambsquarters (Chenopodium album); experiment: Test B postemergence; conditions: Rate 125 g/ha, scale 0 to 100, 0 no effect, 100 complete control
Summary of the method: as §1

[4] = test system: pigweed (Amaranthus retroflexus); experiment: Test B postemergence; conditions: Rate 125 g/ha, scale 0 to 100, 0 no effect, 100 complete control
Summary of the method: as §1

[5] = test system: morning glory (Ipomoea hederacea); experiment: Test B postemergence; conditions: Rate 125 g/ha, scale 0 to 100, 0 no effect, 100 complete control
Summary of the method: as §1

[6] = test system: wheat (Triticum aestivum); experiment: Test B postemergence; conditions: Rate 125 g/ha, scale 0 to 100, 0 no effect, 100 complete control
Summary of the method: as §1

[7] = test system: Surinam grass (Brachiaria decumbens); experiment: Test B postemergence
Summary of the method: as §1

[8] = test system: giant foxtail (Setaria faberii); experiment: Test B postemergence; conditions: Rate 125 g/ha, scale 0 to 100, 0 no effect, 100 complete control
Summary of the method: as §1

[9] = test system: barnyardgrass (Echinochloa crus-galli); experiment: Test B postemergence
Summary of the method: as §1

[10] = test system: velvetleaf (Abutilon theophrasti); experiment: Test C postemergence
Summary of the method: (§2)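 Visual injury scores of 0–100, with 100 meaning complete control, were given relative to controls after 12–14 days in the greenhouse. Treatments used a surfactant-containing non-phytotoxic solvent formulation, sprayed on seeded pots preemergence or on 1–4-leaf plants of 2–18 cm postemergence.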

kochia (Kochia scoparia) = experiment: Test C postemergence
Summary of the method: as §2

[11] = test system: bermudagrass (Cynodon dactylon); experiment: Test C postemergence
Summary of the method: as §2

corn (Zea mays) [12] = experiment: Test C postemergence
Summary of the method: as §2

[13] = test system: cocklebur (Xanthium strumarium); experiment: Test C postemergence
Summary of the method: as §2

[14] = test system: johnsongrass (Sorghum halepense); experiment: Test C postemergence
Summary of the method: as §2

[15] = test system: pigweed (Amaranthus retroflexus); experiment: Test C postemergence
Summary of the method: as §2

[16] = test system: woolly cupgrass (Eriochloa villosa); experiment: Test C postemergence
Summary of the method: as §2

[17] = test system: yellow nutsedge (Cyperus esculentus); experiment: Test C postemergence
Summary of the method: as §2

soybean (Glycine max) = experiment: Test C postemergence
Summary of the method: as §2

[18] = test system: Surinam grass (Brachiaria decumbens); experiment: Test C postemergence
Summary of the method: as §2

[19] = test system: crabgrass (Digitaria sanguinalis); experiment: Test C postemergence
Summary of the method: as §2

[20] = test system: giant foxtail (Setaria faberii); experiment: Test C postemergence
Summary of the method: as §2

[21] = Rate 125 g/ha, scale 0 to 100, 0 no effect, 100 complete control
[22] = Rate 500 g/ha, scale 0 to 100, 0 is no effect, 100 is complete control, 13 to 15 days
[23] = Rate 250 g/ha, scale 0 to 100 (0 no effect, 100 complete control)
[24] = Rate 500 g/ha, scale 0 to 100 (0 no effect, 100 complete control)

SMILES: COc1cc(N2CCC(n3ccc(C(C)(C)C)n3)C2=O)ccc1Cl (stereo not shown) [Compound 117]
- Plant response rating, Velvetleaf [1]: 70
- Plant response rating, Corn (corn (Zea mays) [2]; [21]): 0
- Plant response rating, Corn (corn (Zea mays) [2]; [22]): 0
- Plant response rating, Wild Oat (wild oat (Avena fatua)): 40
- Plant response rating, Lambsquarters [3]: 90
- Plant response rating, Pigweed [4]: 80
- Plant response rating, Morningglory [5]: 70
- Plant response rating, Wheat [6]: 30
- Plant response rating, Surinam grass [7, 21]: 30
- Plant response rating, Surinam grass [7, 22]: 40
- Plant response rating, Foxtail, Giant [8]: 0
- Plant response rating, Barnyardgrass [9, 21]: 40
- Plant response rating, Barnyardgrass [9, 22]: 90
- Plant response rating, Velvetleaf ([10]; Rate 62 g/ha, scale 0 to 100): 20
- Plant response rating, Velvetleaf [10, 23]: 35
- Plant response rating, Velvetleaf [10, 24]: 60
- Plant response rating, Velvetleaf ([10]; scale 0 to 100): 35
- Plant response rating, Kochia (kochia (Kochia scoparia); Rate 62 g/ha, scale 0 to 100): 80
- Plant response rating, Kochia (kochia (Kochia scoparia); [23]): 85
- Plant response rating, Kochia (kochia (Kochia scoparia); [24]): 90
- Plant response rating, Bermudagrass ([11]; Rate 62 g/ha, scale 0 to 100): 0
- Plant response rating, Bermudagrass [11, 21]: 50
- Plant response rating, Bermudagrass [11, 23]: 50
- Plant response rating, Bermudagrass [11, 24]: 95
- Plant response rating, Corn (corn (Zea mays) [12]; Rate 62 g/ha, scale 0 to 100): 0
- Plant response rating, Corn (corn (Zea mays) [12]; [23]): 0
- Plant response rating, Corn (corn (Zea mays) [12]; [24]): 10
- Plant response rating, Corn (corn (Zea mays) [12]; scale 0 to 100): 0
- Plant response rating, Cocklebur ([13]; Rate 62 g/ha, scale 0 to 100): 0
- Plant response rating, Cocklebur [13, 23]: 85
- Plant response rating, Cocklebur [13, 24]: 100
- Plant response rating, Johnsongrass ([14]; Rate 62 g/ha, scale 0 to 100): 0
- Plant response rating, Johnsongrass [14, 23]: 0
- Plant response rating, Johnsongrass [14, 24]: 0
- Plant response rating, Johnsongrass ([14]; rate not given, scale 0 to 100): 0
- Plant response rating, Pigweed ([15]; Rate 62 g/ha, scale 0 to 100): 60
- Plant response rating, Pigweed [15, 23]: 90
- Plant response rating, Pigweed [15, 24]: 100
- Plant response rating, Cupgrass, Woolly ([16]; Rate 62 g/ha, scale 0 to 100): 0
- Plant response rating, Cupgrass, Woolly [16, 23]: 40
- Plant response rating, Cupgrass, Woolly [16, 24]: 45
- Plant response rating, Nutsedge ([17]; Rate 62 g/ha, scale 0 to 100): 0
- Plant response rating, Nutsedge [17, 23]: 0
- Plant response rating, Nutsedge [17, 24]: 0
- Plant response rating, Soybean (soybean (Glycine max); Rate 62 g/ha, scale 0 to 100): 50
- Plant response rating, Soybean (soybean (Glycine max); [23]): 85
- Plant response rating, Soybean (soybean (Glycine max); [24]): 90
- Plant response rating, Surinam grass ([18]; Rate 62 g/ha, scale 0 to 100): 0
- Plant response rating, Surinam grass [18, 21]: 0
- Plant response rating, Surinam grass [18, 23]: 0
- Plant response rating, Surinam grass [18, 24]: 15
- Plant response rating, Crabgrass ([19]; Rate 62 g/ha, scale 0 to 100): 0
- Plant response rating, Crabgrass [19, 23]: 10
- Plant response rating, Crabgrass [19, 24]: 10
- Plant response rating, Foxtail, Giant ([20]; Rate 62 g/ha, scale 0 to 100): 0
- Plant response rating, Foxtail, Giant [20, 23]: 30
- Plant response rating, Foxtail, Giant [20, 24]: 60

SMILES: CCC(C)c1ccn(C2CCN(c3ccc(Cl)c(OC)c3)C2=O)n1 (stereo not shown) [Compound 119]
- Plant response rating, Velvetleaf [1]: 30
- Plant response rating, Corn (corn (Zea mays) [2]; [21]): 0
- Plant response rating, Corn (corn (Zea mays) [2]; [22]): 0
- Plant response rating, Wild Oat (wild oat (Avena fatua)): 0
- Plant response rating, Lambsquarters [3]: 90
- Plant response rating, Pigweed [4]: 60
- Plant response rating, Morningglory [5]: 30
- Plant response rating, Wheat [6]: 20
- Plant response rating, Surinam grass [7, 21]: 20
- Plant response rating, Surinam grass [7, 22]: 50
- Plant response rating, Foxtail, Giant [8]: 0
- Plant response rating, Barnyardgrass [9, 21]: 30
- Plant response rating, Barnyardgrass [9, 22]: 100
- Plant response rating, Velvetleaf ([10]; Rate 62 g/ha, scale 0 to 100): 0
- Plant response rating, Velvetleaf [10, 23]: 10
- Plant response rating, Velvetleaf [10, 24]: 20
- Plant response rating, Velvetleaf ([10]; scale 0 to 100): 0
- Plant response rating, Kochia (kochia (Kochia scoparia); Rate 62 g/ha, scale 0 to 100): 60
- Plant response rating, Kochia (kochia (Kochia scoparia); [23]): 90
- Plant response rating, Kochia (kochia (Kochia scoparia); [24]): 90
- Plant response rating, Bermudagrass ([11]; Rate 62 g/ha, scale 0 to 100): 0
- Plant response rating, Bermudagrass [11, 21]: 0
- Plant response rating, Bermudagrass [11, 23]: 0
- Plant response rating, Bermudagrass [11, 24]: 0
- Plant response rating, Corn (corn (Zea mays) [12]; Rate 62 g/ha, scale 0 to 100): 20
- Plant response rating, Corn (corn (Zea mays) [12]; [23]): 20
- Plant response rating, Corn (corn (Zea mays) [12]; [24]): 50
- Plant response rating, Corn (corn (Zea mays) [12]; scale 0 to 100): 20
- Plant response rating, Cocklebur ([13]; Rate 62 g/ha, scale 0 to 100): 50
- Plant response rating, Cocklebur [13, 23]: 70
- Plant response rating, Johnsongrass ([14]; Rate 62 g/ha, scale 0 to 100): 0
- Plant response rating, Johnsongrass [14, 23]: 0
- Plant response rating, Johnsongrass [14, 24]: 0
- Plant response rating, Johnsongrass ([14]; rate not given, scale 0 to 100): 0
- Plant response rating, Pigweed ([15]; Rate 62 g/ha, scale 0 to 100): 40
- Plant response rating, Pigweed [15, 23]: 90
- Plant response rating, Cupgrass, Woolly ([16]; Rate 62 g/ha, scale 0 to 100): 0
- Plant response rating, Cupgrass, Woolly [16, 23]: 0
- Plant response rating, Cupgrass, Woolly [16, 24]: 20
- Plant response rating, Nutsedge ([17]; Rate 62 g/ha, scale 0 to 100): 0
- Plant response rating, Nutsedge [17, 23]: 0
- Plant response rating, Nutsedge [17, 24]: 0
- Plant response rating, Soybean (soybean (Glycine max); Rate 62 g/ha, scale 0 to 100): 40
- Plant response rating, Soybean (soybean (Glycine max); [23]): 80
- Plant response rating, Soybean (soybean (Glycine max); [24]): 90
- Plant response rating, Surinam grass ([18]; Rate 62 g/ha, scale 0 to 100): 0
- Plant response rating, Surinam grass [18, 21]: 0
- Plant response rating, Surinam grass [18, 23]: 0
- Plant response rating, Surinam grass [18, 24]: 20
- Plant response rating, Crabgrass ([19]; Rate 62 g/ha, scale 0 to 100): 30
- Plant response rating, Crabgrass [19, 23]: 30
- Plant response rating, Crabgrass [19, 24]: 60
- Plant response rating, Foxtail, Giant ([20]; Rate 62 g/ha, scale 0 to 100): 0
- Plant response rating, Foxtail, Giant [20, 23]: 0
- Plant response rating, Foxtail, Giant [20, 24]: 80
